SMILES strings stand for the structures.

The test system of the assay is RS4;11 cells. Briefly: RS4;11 cell viability assay (CellTiter Glo).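 Further: acute lymphoblastic leukemia line RS4,11, EC50 derived from percentage of viable cells after treatment relative to untreated controls, cell killing taken as a measure of Bcl-2 inhibition.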 The conditions noted are these: Homo sapiens, RS4-11, 48 h, 50,000 cells per well, 10% human serum, 48 hours; read-out: RS4; 11 EC50 Values. It is filed as cell-based, human.
Description: The acute lymphoblastic leukemia (ALL) cell line RS4;11 was used as the primary human cell line to assess the cellular activity of Bcl-2 selective agents in vitro and their efficacy in vivo.
Cell cytotoxicity EC50 values were assessed using CellTiter Glo (Promega) according to the manufacturer's recommendations. The EC50 values were determined as a percentage of viable cells following treatment compared to the untreated control cells.
Consider `CC1(C)CCC(CN2CCN(c3ccc(C(=O)NS(=O)(=O)c4ccc(NCC5CN(C(CF)CF)C5)c([N+](=O)[O-])c4)c(Oc4cnc5[nH]ccc5c4)c3)CC2)=C(c2ccc(Cl)cc2)C1` [Example 161, 4-(4-{[2-(4-chlorophenyl)-4,4-dimethylcyclohex-1-en-1-yl]methyl}piperazin-1-yl)-N-({4-[({1-[2-fluoro-1-(fluoromethyl)ethyl]azetidin-3-yl}methyl)amino]-3-nitrophenyl}sulfonyl)-2-(1H-pyrrolo[2,3-b]pyridin-5-yloxy)benzamide], for which the EC50 came to 34.6 nM.
To `CC1(C)CCC(CN2CCN(c3ccc(C(=O)NS(=O)(=O)c4ccc(NCC5CN(C6COC6)C5)c([N+](=O)[O-])c4)c(Oc4cnc5[nH]ccc5c4)c3)CC2)=C(c2ccc(Cl)cc2)C1` [Example 162, 4-(4-{[2-(4-chlorophenyl)-4,4-dimethylcyclohex-1-en-1-yl]methyl}piperazin-1-yl)-N-[(3-nitro-4-{[(1-oxetan-3-ylazetidin-3-yl)methyl]amino}phenyl)sulfonyl]-2-(1H-pyrrolo[2,3-b]pyridin-5-yloxy)benzamide] belongs 13 nM; to `CC1(C)CCC(CN2CCN(c3ccc(C(=O)NS(=O)(=O)c4ccc(NCC5CCN(C6COC6)CC5)c([N+](=O)[O-])c4)c(Oc4cnc5[nH]ccc5c4)c3)CC2)=C(c2ccc(Cl)cc2)C1` [Example 163, 4-(4-{[2-(4-chlorophenyl)-4,4-dimethylcyclohex-1-en-1-yl]methyl}piperazin-1-yl)-N-[(3-nitro-4-{[(1-oxetan-3-ylpiperidin-4-yl)methyl]amino}phenyl)sulfonyl]-2-(1H-pyrrolo[2,3-b]pyridin-5-yloxy)benzamide], 4.32 nM.
To `CC1(C)CCC(CN2CCN(c3ccc(C(=O)NS(=O)(=O)c4ccc(NCC5CCN(C6CC6)CC5)c([N+](=O)[O-])c4)c(Oc4cnc5[nH]ccc5c4)c3)CC2)=C(c2ccc(Cl)cc2)C1` [Example 164, 4-(4-{[2-(4-chlorophenyl)-4,4-dimethylcyclohex-1-en-1-yl]methyl}piperazin-1-yl)-N-[(4-{[(1-cyclopropylpiperidin-4-yl)methyl]amino}-3-nitrophenyl)sulfonyl]-2-(1H-pyrrolo[2,3-b]pyridin-5-yloxy)benzamide] belongs 14.8 nM; to `CC1(C)CCC(CN2CCN(c3ccc(C(=O)NS(=O)(=O)c4ccc(NCC5CN(CCF)CCO5)c([N+](=O)[O-])c4)c(Oc4cnc5[nH]ccc5c4)c3)CC2)=C(c2ccc(Cl)cc2)C1` (stereo not shown) [Example 165, 4-(4-{[2-(4-chlorophenyl)-4,4-dimethylcyclohex-1-en-1-yl]methyl}piperazin-1-yl)-N-{[4-({[4-(2-fluoroethyl)morpholin-2-yl]methyl}amino)-3-nitrophenyl]sulfonyl}-2-(1H-pyrrolo[2,3-b]pyridin-5-yloxy)benzamide], 5.1 nM.
To `CC1(C)CCC(CN2CCN(c3ccc(C(=O)NS(=O)(=O)c4ccc(NCC5CN(CC(F)F)CCO5)c([N+](=O)[O-])c4)c(Oc4cnc5[nH]ccc5c4)c3)CC2)=C(c2ccc(Cl)cc2)C1` (stereo not shown) [Example 166, 4-(4-{[2-(4-chlorophenyl)-4,4-dimethylcyclohex-1-en-1-yl]methyl}piperazin-1-yl)-N-{[4-({[4-(2,2-difluoroethyl)morpholin-2-yl]methyl}amino)-3-nitrophenyl]sulfonyl}-2-(1H-pyrrolo[2,3-b]pyridin-5-yloxy)benzamide] belongs 11.8 nM; to `CC1(C)CCC(CN2CCN(c3ccc(C(=O)NS(=O)(=O)c4ccc(OCC5(F)CCN(C6COC6)CC5)c([N+](=O)[O-])c4)c(Oc4cnc5[nH]ccc5c4)c3)CC2)=C(c2ccc(Cl)cc2)C1` [Example 167, 4-(4-{[2-(4-chlorophenyl)-4,4-dimethylcyclohex-1-en-1-yl]methyl}piperazin-1-yl)-N-({4-[(4-fluoro-1-oxetan-3-ylpiperidin-4-yl)methoxy]-3-nitrophenyl}sulfonyl)-2-(1H-pyrrolo[2,3-b]pyridin-5-yloxy)benzamide], 0.93 nM.
For `CC1(C)CCC(CN2CCN(c3ccc(C(=O)NS(=O)(=O)c4ccc(OC[C@@H]5CC(F)(F)CN5C5COC5)c([N+](=O)[O-])c4)c(Oc4cnc5[nH]ccc5c4)c3)CC2)=C(c2ccc(Cl)cc2)C1` [Example 168, 4-(4-{[2-(4-chlorophenyl)-4,4-dimethylcyclohex-1-en-1-yl]methyl}piperazin-1-yl)-N-[(4-{[(2S)-4,4-difluoro-1-oxetan-3-ylpyrrolidin-2-yl]methoxy}-3-nitrophenyl)sulfonyl]-2-(1H-pyrrolo[2,3-b]pyridin-5-yloxy)benzamide], the EC50 was 88.7 nM.
In the case of `CC1(C)CCC(CN2CCN(c3ccc(C(=O)NS(=O)(=O)c4ccc(NCC5COCCN5C5CCOCC5)c([N+](=O)[O-])c4)c(Oc4cnc5[nH]ccc5c4)c3)CC2)=C(c2ccc(Cl)cc2)C1` (stereo not shown) [Example 169, 4-(4-{[2-(4-chlorophenyl)-4,4-dimethylcyclohex-1-en-1-yl]methyl}piperazin-1-yl)-N-[(3-nitro-4-{[(4-tetrahydro-2H-pyran-4-ylmorpholin-3-yl)methyl]amino}phenyl)sulfonyl]-2-(1H-pyrrolo[2,3-b]pyridin-5-yloxy)benzamide], the EC50 turned out to be 76.3 nM.
Regarding `CC1(C)CCC(CN2CCN(c3ccc(C(=O)NS(=O)(=O)c4ccc(NCC5COCCN5C5CCC5)c([N+](=O)[O-])c4)c(Oc4cnc5[nH]ccc5c4)c3)CC2)=C(c2ccc(Cl)cc2)C1` (stereo not shown) [Example 170, 4-(4-{[2-(4-chlorophenyl)-4,4-dimethylcyclohex-1-en-1-yl]methyl}piperazin-1-yl)-N-[(4-{[(4-cyclobutylmorpholin-3-yl)methyl]amino}-3-nitrophenyl)sulfonyl]-2-(1H-pyrrolo[2,3-b]pyridin-5-yloxy)benzamide], the EC50 came out at 125 nM.
As for `CC1(C)CCC(CN2CCN(c3ccc(C(=O)NS(=O)(=O)c4ccc(NCC5COCCN5C5CCOC5)c([N+](=O)[O-])c4)c(Oc4cnc5[nH]ccc5c4)c3)CC2)=C(c2ccc(Cl)cc2)C1` (stereo not shown) [Example 171, 4-(4-{[2-(4-chlorophenyl)-4,4-dimethylcyclohex-1-en-1-yl]methyl}piperazin-1-yl)-N-[(3-nitro-4-{[(4-tetrahydrofuran-3-ylmorpholin-3-yl)methyl]amino}phenyl)sulfonyl]-2-(1H-pyrrolo[2,3-b]pyridin-5-yloxy)benzamide], the EC50 was 52.7 nM.
As for `CC1(C)CCC(CN2CCN(c3ccc(C(=O)NS(=O)(=O)c4ccc(NCC5CCN(C(CF)CF)CC5)c([N+](=O)[O-])c4)c(Oc4cnc5[nH]ccc5c4)c3)CC2)=C(c2ccc(Cl)cc2)C1` [Example 172, 4-(4-{[2-(4-chlorophenyl)-4,4-dimethylcyclohex-1-en-1-yl]methyl}piperazin-1-yl)-N-({4-[({1-[2-fluoro-1-(fluoromethyl)ethyl]piperidin-4-yl}methyl)amino]-3-nitrophenyl}sulfonyl)-2-(1H-pyrrolo[2,3-b]pyridin-5-yloxy)benzamide], the EC50 was 20.5 nM.
To `CC1(C)CCC(CN2CCN(c3ccc(C(=O)NS(=O)(=O)c4ccc(OCC5(F)CCN(C6CC6)CC5)c([N+](=O)[O-])c4)c(Oc4cnc5[nH]ccc5c4)c3)CC2)=C(c2ccc(Cl)cc2)C1` [Example 173, 4-(4-{[2-(4-chlorophenyl)-4,4-dimethylcyclohex-1-en-1-yl]methyl}piperazin-1-yl)-N-({4-[(1-cyclopropyl-4-fluoropiperidin-4-yl)methoxy]-3-nitrophenyl}sulfonyl)-2-(1H-pyrrolo[2,3-b]pyridin-5-yloxy)benzamide] belongs 5.16 nM.
